The target of assay [1] is T1, SAMHD1 (residues 115 to 626) (Homo sapiens, UniProt Q9Y3Z3).
T1 construct: The catalytic domain of SAMHD1 (residues 115 to 626) was expressed and purified as previously described; made in house
The assay is described as follows: Continuous enzyme-coupled (Ppx1 / MDCC-PBP) real-time assay of SAMHD1 triphosphohydrolase activity. The assay is classed as biochemical. Conditions: GTP activator 0.2 mM, 25°C. The method, then: The steady-state kinetics of SAMHD1 were determined by a coupled-enzyme assay using Ppx1 and a fluorescent phosphate biosensor, MDCC-PBP. The reactions were set up in 20-μl volumes in 384-well low-protein-binding microplates (Corning, USA), and the time-dependent fluorescence signal was measured using a Tecan Saffire^2 multiwell plate reader (Männedorf, Switzerland). Solutions containing SAMHD1 (residues 115 to 626), Ppx1, MDCC-PBP, an activator, and an inhibitor (if present) were incubated for 5 min at 25°C before the reaction was initiated by the addition of the substrate. The final concentrations were 100 nM SAMHD1, 10 nM Ppx1, and 40 μM MDCC-PBP. Depending on the experiment, the concentration of the substrate, the activator, or the inhibitor varied while the substrate and/or the activator was held constant at 1 mM and 0.2 mM, respectively. The fluorescence intensity was recorded at 430 nm for excitation and 465 nm for emission wavelengths, with a 7-nm slit width, at 8- to 10-s time intervals over a period of 10 to 30 min. The standard curves were obtained by incubating 40 μM MDCC-PBP with different concentrations of phosphate (Pi) and measuring the fluorescence, as discussed above. The fluorescence response was linear and in the range of 0 to 20 μM Pi.
The steady-state rates were obtained from the time courses of Pi formation by linear regression of the data points in the linear phase of the reaction. Rates were divided by the SAMHD1 concentration and were plotted versus the activator, substrate, or inhibitor concentration. Apparent dissociation constants for the activator (KA) or the substrate binding (KS) and the catalytic constant (kcat) were determined by nonlinear least-squares fitting using either a hyperbolic or a Hill-function equation in the software package GraFit 7.0.3 (Erithacus Software, United Kingdom) ([22]). […] Data from the three different experiments were analyzed by a least-squares fit using the equation for competitive inhibition. The fits for the three data sets yielded invariant values for the inhibition constants (Ki), supporting a competitive mode of inhibition. All measurements were performed in triplicate in the reaction buffer.

In a further assay the test system is T2, SAMHD1.
T2 construct: The catalytic domain of SAMHD1 (residues 115 to 626) was expressed and purified as previously described; made in house
The assay is described as follows: IEX-HPLC assay of SAMHD1 triphosphohydrolase activity. The class given is biochemical, human. Conditions: 0.2 mM GTP activated, 1 mM dATP, three enzyme concentrations 2.5, 5, 7.5 µM. The method, then:
IEX-HPLC assay of SAMHD1 Triphosphohydrolase activity
In a typical assay 2-10 µM SAMHD1 was incubated with 0.2 mM GTP activator and 1mM dNTP as substrate in Reaction buffer, 20mM Tris-HCl, 150 mM NaCl, 5 mM MgCl2, 2 mM TCEP (pH 7.5). The reaction was allowed to proceed and samples withdrawn at timed intervals up to 5 minutes and terminated by 10 fold dilution into 18.0% acetonitrile, 25mM Tris-HCl, 1 mM EDTA pH 8.0. The nucleotide hydrolysis reactions were analysed by anion exchange HPLC using a DNA-PAC100 (4 x 50mm) column (Dionex). The column was equilibrated at 30°C at 1 mL/min in 25mM Tris-HCl, 0.5% acetonitrile pH 8.0 (Buffer A). […] Absorbance data from the column eluent was continuously monitored between 200-400nm (2 nm interval) using MD-2010 photodiode array detector (JASCO). Peak integration of the absorbance data recorded at 260 nm was used to quantify the amount of substrate and products during at each time point of the reaction. Initial rates of dNTP hydrolysis were determined from the linear part of plots of substrate against time.
Supplementary Figure S1 - HPLC traces of 0.2 mM GTP activated SAMHD1 hydrolysis of 1 mM dATP. […] Inset, kcat was determined by linear regression of Kapp over three enzyme concentrations, 2.5 µM, 5 µM and 7.5
µM. Error bars represent the SEM of three independent measurements recorded at each substrate concentration. […]

For orientation: kcat means the maximal rate divided by the concentration of active sites.

T1 sequence (Q9Y3Z3 115-626): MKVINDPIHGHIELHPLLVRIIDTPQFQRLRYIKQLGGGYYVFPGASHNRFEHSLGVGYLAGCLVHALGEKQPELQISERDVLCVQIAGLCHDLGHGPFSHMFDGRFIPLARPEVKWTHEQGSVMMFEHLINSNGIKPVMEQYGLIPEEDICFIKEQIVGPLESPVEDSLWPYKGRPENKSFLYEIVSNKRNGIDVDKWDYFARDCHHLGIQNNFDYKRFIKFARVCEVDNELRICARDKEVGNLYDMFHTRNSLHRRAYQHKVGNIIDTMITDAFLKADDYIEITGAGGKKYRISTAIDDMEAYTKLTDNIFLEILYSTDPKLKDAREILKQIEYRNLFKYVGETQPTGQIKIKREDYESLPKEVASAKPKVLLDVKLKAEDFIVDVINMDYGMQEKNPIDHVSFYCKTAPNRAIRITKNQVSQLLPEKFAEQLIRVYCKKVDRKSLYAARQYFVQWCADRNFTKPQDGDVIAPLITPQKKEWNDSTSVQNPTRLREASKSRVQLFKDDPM

Take `Nc1ncnc2c1ncn2[C@H]1C[C@H](O)[C@@H](COP(=O)(O)OP(=O)(O)OP(=O)(O)O)O1` [dATP]: in assay [1], the “KS, apparent dissociation constant for substrate binding” value came out at 42.1 ± 6.9 µM and the kcat came to 0.94 ± 0.06 s⁻¹. Further, the kcat in the assay on SAMHD1 is 0.99 s⁻¹.

For the origin of these results see article PMC4291348, “A Continuous Enzyme-Coupled Assay for Triphosphohydrolase Activity of HIV-1 Restriction Factor SAMHD1” (Antimicrobial Agents and Chemotherapy, 2014).
